Experimental data as given in patent publication US8932597B2 (priority 2008, dated 2015).

Tests used:
HuM2e antibody 23K12 = format: binding, human
HuM2e antibody 8I10 = format: binding, human
mAb 8i10 = format: binding, human
2N9 control antibody = format: binding
mAb 23K12 = format: binding, human
14C2 antibody = format: binding

Substance | Binding to 23K12 (in words) (HuM2e antibody 23K12) | Binding to 8I10 (in words) (HuM2e antibody 8I10) | Binding activity to truncated M2 peptides, ELISA absorbance at 450 nm, 8i10 (mAb 8i10) | Binding activity to truncated M2 peptides, ELISA absorbance at 450 nm, 2N9 (2N9 control antibody) | Binding activity to truncated M2 peptides, ELISA absorbance at 450 nm, 23K12 (mAb 23K12) | Binding activity to truncated M2 peptides, ELISA absorbance at 450 nm, 14C2 (14C2 antibody)
CSLLTECGSLLTCV (epitope peptide) [SEQ ID NO: 463] | very best specific binder | very best specific binder |  |  |  | 
IRNEWGCRCNDSSD [CM14] |  |  | 0.14 | 0.13 | 0.36 | 0.23
LLTEVETPIRNEWGCR [M16] |  |  | 0.09 | 0.09 | 0.21 | 3.94
MSLLTEVETPIRNEWGCRCNDSSD [M2e] |  |  | 0.13 | 0.10 | 0.43 | 3.98
NEWGCRCNDSSD [CM12] |  |  | 0.14 | 0.14 | 0.39 | 0.27
SLLTEVE [NM7] |  |  | 0.10 | 0.08 | 0.20 | 0.14
SLLTEVET [NM8] |  |  | 0.10 | 0.09 | 0.20 | 0.15
SLLTEVETPI [NM10] |  |  | 0.10 | 0.10 | 0.24 | 0.17
SLLTEVETPIR [NM11] |  |  | 0.13 | 0.12 | 0.30 | 0.21
SLLTEVETPIRN [NM12] |  |  | 0.10 | 0.09 | 0.24 | 0.20
SLLTEVETPIRNEWGC [NM16] |  |  | 0.29 | 0.09 | 0.62 | 3.90
SLLTEVETPIRNEWGCR [NM17] |  |  | 0.26 | 0.10 | 0.58 | 3.99
SLLTEVETPIRNEWGCRCNDSSD [M2] |  |  | 0.11 | 0.06 | 0.22 | 3.85
TPIRNEWGCRCNDSSD [CM16] |  |  | 0.13 | 0.12 | 0.35 | 0.23
VETPIRNEWGCR [M12] |  |  | 0.09 | 0.09 | 0.20 | 0.15
